Measurements reported in patent publication US9359322B2, “C-linked glucuronide of N-(4-hydroxybenzyl) retinone, analogs thereof, and methods of using the same to inhibit neoplastic cell growth” (Wisconsin Alumni Research Foundation, priority 2005, dated 2016).
Marks after values point to notes of the source that are not given here.

How the values were obtained:
[1] = system: nuclear retinoic acid receptors (RAR); details: cited from earlier work
CYP26A1 mRNA = test: Induction of CYP26A1 mRNA in liver (Q-PCR); format: in vivo, rat; details: at sacrifice, retinoid-fed rats, 2 mmol/kg diet; FIG. 4
CYP26B1 mRNA = test: Induction of CYP26B1 mRNA in lung (Q-PCR); format: in vivo, rat; details: at sacrifice, retinoid-fed rats, 2 mmol/kg diet; data not shown
[2] = Terminal plasma drug levels (plasma retinoid assay, HPLC); format: in vivo, rat; details: female, Sprague-Dawley, rat, plasma, oral; day 22 of treatment; 2 mmol/kg diet; ± SEM; read-out: Plasma retinoid concentration (terminal plasma drug level)
Protocol: Plasma Retinoid Assay. To 500 μL of plasma was added 150 μL of ethanol containing 0.75 μg of internal standard (N-(4-chlorophenyl) retinamide). After mixing 30 sec., 500 μL of ethyl acetate was added followed by 1 min. of mixing and centrifugation for 5 minutes at 1000 rpm in an IEC CL centrifuge. The ethyl acetate layer was removed and syringe filtered through a 0.45 um filter. The ethyl acetate extraction was repeated two more times. The combined extracts were evaporated and the residue reconstituted in 100 μL of methanol. The methanol extract (20 μL) was analyzed by HPLC on a Beckman Instruments model 127 instrument equipped with a model 166 UV detector. Chromatography was done on a precolumn equipped 250×4.6 mm Bechman Ultrasphere ODS column with an 85% methanol/water mobile phase (both containing 10 mM ammonium acetate) flowing at 1 mL/min. Analysis for both internal standard and retinol was conducted at 350 nm and internal standard recoveries and retinol levels were determined by comparison with standard curves, with adjustment of the retinol level based on recovery. Recoveries of internal standard averaged ca. 78%. […] In the 4-HPR treated group, plasma levels of this retinoid were evaluated simultaneously in the same samples as above. In order to avoid interfering substances, plasma treatment retinoid levels for RA and 4-HBRCG were measured using the above system and a step gradient of 75% methanol for 15 min. followed by 85% methanol for 40 minutes.

[3] = system: DMBA-induced rat mammary tumor; test: DMBA-induced rat mammary tumor model, retinoid-containing diets; format: in vivo
Protocol: Preliminary evaluation of the mammary tumor chemotherapeutic activity of 4-HBRCG (7) was conducted, and its toxicity profile was also assessed. As previously described,^7, 12 tumor-bearing female rats (treated ca. 50 days earlier with 7,12-dimethylbenz(a)anthracene [DMBA]) were fed the control or retinoid-containing diets (RA (2), 4-HPR (3) or 4-HBRCG (7)) at 2 mmole/kg diet for 22 days.
(§1) Animal Studies: Mammary tumors were induced by intragastric intubation of 50-day old female Sprague-Dawley rats (Harlan Industries, Indianapolis, Ind.) with a single dose of 15 mg DMBA in 1.0 ml of sesame oil per rat. The rats were then maintained on a powdered Teklad 22/5 rodent chow diet (W) 8640 (Harlan Industries, Indianapolis, Ind.), and allowed food and water ad libitum. Four months later, rats which had developed palpable tumors were randomly assigned to the experimental groups (4 rats/group). The retinoid-treated groups were fed diets supplemented with 2 mmol/kg diet of atRA, 4-HPR, or 4-HBRCG, respectively. The retinoids were added to the diet in a vehicle consisting of 25 ml of ethanol: tricaprylin (1:4 v/v) plus 2% (w/v) of α-tocopherol as previously described.^9 This vehicle was also added to the control diet. The additives were blended into the chow diets using a Hobart food mixer. The diets were fed in stainless steel feeders designed with food hoppers. The food was replaced weekly with freshly prepared diets. Food consumption was determined once weekly, and from that the average daily consumption/rat was estimated. These diets were continuously fed for 22 days. Animals were also weighted weekly and monitored for general health status and signs of possible toxicity due to treatment.
(§2) Baseline measurement of initial tumor sizes, numbers and rat body weights were determined immediately before commencement of treatments, and final measurements were recorded just prior to sacrifice of the animals. Animals were palpated for tumors twice weekly and tumor diameters were measured weekly by a micrometer caliper. Tumor volumes were calculated using the formula [V= 4/3 πr^3] where r is one-half the mean of the sum of the largest diameter and the axis at right angle to it. All tumors as well as lungs, liver, kidney and femur were excised at the end of the experiment for chemical and histopathological evaluation. Blood samples were also taken from each animal for determination of plasma retinol and triglyceride levels.

[4] = Plasma triglyceride measurement; format: in vivo, rat; details: 2 mmol/kg diet, 22 days; FIG. 2A
Protocol: Plasma Triglyceride Measurement. Bloods were drawn from anesthetized animals in the presence of EDTA as an anticoagulant, and the resulting plasma was used for the measurement of plasma “true” triglyceride levels using a kit from Sigma-Aldrich (Saint Louis, Mo.). Briefly, the total plasma triglyceride and glycerol concentrations were determined, and the glycerol component was subtracted from the total plasma triglyceride measurement to obtain the “true” serum triglyceride concentration.

[5] = Femur bone mineral content; format: in vivo, rat; details: end of feeding study; FIG. 2B
Description: Bone Mineral Content. The femur was disarticulated from the leg, and the adhering soft tissue was removed by dissection. Femurs were scanned using the Lunar PIXImus 2 system (Model X2608, General Electric using the LUNAR software version 1.45), and control measurements were made using the small animal quality control phantom. Femurs were scanned 5 times each with re-positioning at each measure. The average value of the bone mineral content (BMC) in grams for each animal is reported as one independent measure.

[6] = Body weight change during retinoid feeding; format: in vivo, rat; details: 2 mmol/kg diet
Protocol: as §1, §2

[7] = number of individual tumors, 2 mmol/kg diet, 22 days

Row | Structure (SMILES) | Affinity for binding to nuclear RAR relative to RA [1] | Induction of CYP26A1 mRNA in liver (CYP26A1 mRNA) [fold above control] | Induction of CYP26B1 mRNA in lung (CYP26B1 mRNA) [fold above control] | concentration at 22 day [2] [ng/mL] | % Change in tumor volume from baseline ([3]; 2 mmol/kg diet for 22 days) | Final tumor volume ([3]; 2 mmol/kg diet for 22 days, mean ± SEM) [cm^3] | Initial tumor volumes ([3]; baseline before treatment, mean ± SEM) [cm^3] | Complete regression (tumors that totally disappeared) [3, 7] | No effect [3, 7] | Partial regression (tumors with 25-75% decrease in volume) [3, 7] | New tumors ([3]; number of tumors, 2 mmol/kg diet, 22 days) | Effect on serum triglyceride concentration [4] | Effect on femur bone mineral content vs control [5] | Effect on normal body weight gain ([6]; feeding period) | % Weight change ([6]; relative to baseline body weight over 22 days)
1 | CC1=C(/C=C/C(C)=C/C=C/C(C)=C/C(=O)Nc2ccc(CC3OC(C(=O)O)C(O)C(O)C3O)cc2)C(C)(C)CCC1 (stereo not shown) [compound 6, N-(4-hydroxyphenyl) retinamide-C-glucuronide] | low affinity relative to RA | – | – | – | – | – | – | – | – | – | – | – | – | – | –
2 | CC1=C(/C=C/C(C)=C/C=C/C(C)=C/C(=O)O)C(C)(C)CCC1 [Retinoic acid (2), all-trans retinoic acid] | – | 67 | 46 | 300 ± 100 | −38 ^d % | 0.05 ± 0.02 | 0.08 ± 0.03 | 1 | 1 | 8 | 0 | dramatically increased serum triglyceride concentration | significant reduction in femur BMC | significant reduction in normal body weight gain | +0.2 ^d %
3 | CC1=C(/C=C/C(C)=C/C=C/C(C)=C/C(=O)Nc2ccc(O[C@@H]3O[C@H](C(=O)O)[C@@H](O)[C@H](O)[C@H]3O)cc2)C(C)(C)CCC1 [compound 5, N-(4-hydroxyphenyl) retinamide-O-glucuronide] | low affinity relative to RA | – | – | – | – | – | – | – | – | – | – | – | – | – | –
